For 89 compounds, IC50 results are on record in PubChem BioAssay AID2305 (GlaxoSmithKline (GSK), 2010).

Where “and” joins values, the source holds several entries; their conditions need not be identical. Equal values may be shown once.

This experiment relates to P. falciparum 3D7 growth, pLDH absorbance. In words: P. falciparum 3D7 growth inhibition, dose response, strain 3D7 (AID 2305).

Take `CN1CCN(CC(=O)Nc2ccc(-c3cccc(-c4nc5ccc(C(F)(F)F)cc5[nH]4)c3)cc2)CC1`: the IC50 (as a rule, the concentration at which inhibition is half-maximal) was found to be 400 nM.
`O=C(CSc1nc2ccccc2c(=O)n1CC1CCCO1)Nc1cc(C(F)(F)F)ccc1Cl` (centres undefined) yielded an IC50 of 230 nM.
To `COc1ccc(-c2ccc(NC(=O)c3ccc(C#N)cc3)cc2)cc1CN(C)CCO` belongs 630 nM.
With `Cc1cc(C)cc(N2C(N)=NC(N)=NC2(C)C)c1`, the IC50 worked out at 40 nM. This IC50 is about 16-fold lower than that of the compound before.
To `COc1ccc2cc(-c3nc(-c4c(Cl)cccc4Cl)[nH]c3-c3ccnc(NCCCN4CCN(C)CC4)c3)ccc2c1` belongs 710 nM; to `O=C(/C=C/c1ccc(Cl)c(Cl)c1)N1CCC(CCN2CCC(c3nc4ccc(O)cc4[nH]3)CC2)CC1`, 340 nM.
For `CCn1c(Sc2ccc(C#N)c([N+](=O)[O-])c2)nnc1-c1ccc(OC)cc1` the value was 810 nM; for `Cc1cc(N(C)C)nc(Nc2ccc(NC(=O)c3ccccc3Cl)cc2)n1`, 1020 nM.
For `O=C(C=Cc1cc([N+](=O)[O-])ccc1Cl)N1CCC(CCN2CCC(c3c[nH]c4ccccc34)CC2)CC1` the value was 740 nM.
In the case of `Fc1ccc2[nH]cc(CCNCc3ccc(-c4cccc(-c5nc6ccccc6[nH]5)c4)cc3)c2c1`, the IC50 was determined as 170 nM. This IC50 lies about 4.4-fold lower than the previous one.
To `COc1ccc2nccc(NN=Cc3cccnc3)c2c1` belongs 500 nM; to `O=c1cc(NCCCCNCc2ccc(Br)c(Br)c2)[nH]c2ccccc12`, 860 nM; to `COc1ccccc1C(=O)C1CCCN(C(=O)c2ccccc2C(F)(F)F)C1` (centres undefined), 600 nM.
As for `COc1c(Br)cc(Br)cc1C(C)=O`, the IC50 worked out at 990 nM.
To `Clc1ccc(CNCCCCCCNCc2ccc(Cl)cc2)cc1` belongs 850 nM; to `O=C(Nc1cccc(CN2CCCN(Cc3ccc(O)cc3)CC2)c1)c1ccc(Cl)c(Cl)c1`, 260 nM.
Turning to `Cc1ccc(-c2cc(C(=O)Nc3ccc(S(=O)(=O)N4CCCCC4C)cc3)[nH]n2)c(O)c1` (centres undefined), the IC50 came out at 1080 nM.
For `COc1ccc(-c2cncc3ccc(C(=O)NCc4ccncc4)nc23)cc1` the value was 740 nM; for `Cc1cc(N[C@@H](Cc2ccccc2)C(=O)NC2CCCC2)nc(NCCc2ccc(F)cc2)n1`, 800 nM; for `CC1(C)CN(CCC2CCC(NC(=O)/C=C/c3ccc(F)cc3F)CC2)Cc2ccc(C#N)cc21` (centres undefined), 790 nM.
To `Cc1cc(NCC(c2ccccc2)c2ccccc2)nc(NCC2CCCCC2)n1` belongs 510 nM; to `Cc1ccc(CNC(=O)c2cnc(N3CCN(c4ccncc4)CC3)c(Cl)c2)cc1`, 1290 nM; to `Cc1[nH]c(C)c(C2CCC(c3ccc(Cl)cc3)CC2)c(=O)c1Cl` (centres undefined), 50 nM.
In turn, `COc1cc(Br)ccc1N1CCN(CCCCNC(=O)c2ccc(NC(=O)c3ccc(Cl)cc3)cc2)CC1` registered an IC50 of 760 nM. This IC50 is about 15-fold higher than that of the compound before.
To `C=C(F)c1sc(CNCCCNc2nc3ccccc3[nH]2)c(C)c1Br` belongs 370 nM; to `CCN(Cc1ccccc1)C1CCN(Cc2cc(Br)ccc2O)CC1`, 820 nM.
To `CCOc1cc(Cl)c(C(C)NC(=O)c2cccc(OC)c2)cc1OCC` (centres undefined) belongs 960 nM; to `C[C@@H](COc1ccccc1)NCC(O)c1ccc([N+](=O)[O-])c(OCc2ccccc2)c1` (some centres undefined), 990 nM.
As for `NC(N)=NN=C1C=Cc2cccc3cccc1c23`, the IC50 is 610 nM.
For `O=C(/C=C/c1ccc(Cl)c(Cl)c1)NCCCCCN1CCC(NC(=O)Nc2ccc(Cl)cc2Cl)CC1` the value was 640 nM; for `Cn1nc(-c2cccc(CNC3CCc4ccccc43)c2)c2cnc(NC3CCCC3)nc21` (centres undefined), 860 nM.
For `Cc1cnc(C(=O)Nc2cccc(-c3ccc(-c4nc5ccc(F)cc5[nH]4)cc3)c2)cn1` the value was 640 nM; for `COc1ccc(NC(=O)[C@H](CC(C)C)Nc2ccnc(NCCc3ccc(F)cc3)n2)cc1`, 1600 nM; for `COc1cc(OC)c(OC)cc1C=NNc1cc(C)nc2ccccc12`, 300 nM.
For `Nc1ncnc2cc(-c3cccc(NC(=O)Nc4ccccc4)c3)sc12` the value was 710 nM; for `CCCCCCN=C(N)c1ccc2nc(-c3ccc(O)cc3)[nH]c2c1`, 190 nM; for `Cc1ccc2[nH]c(C)c(Br)c(=O)c2c1`, 810 nM.
Regarding `CCN(CC)CCN(Cc1ccc(-c2ccc(C(F)(F)F)cc2)cc1)C(=O)Cn1c(CCc2ccc(F)c(F)c2)nc(=O)c2ccccc21`, the IC50 was found to be 1580 nM.
For `COc1ccc2nccc([C@@H](O)CN3CCC(NC(=O)COc4nc(SCc5ccc(F)cc5)nc5c4CCC5)CC3)c2c1`, the IC50 was found to be 590 nM.
On to `O=C(Nc1ccc2c(c1)CCN(C1CCC1)CC2)c1ccc(-c2cn3ccccc3n2)cc1`, for which the IC50 was 880 nM.
For `CN(CCCCN)Cc1ccc(-c2ccc(Cl)cc2)cc1` the value was 880 nM.
Turning to `CCC(CC)OC(=O)C(C)c1cccc(C(=O)c2ccccc2)c1` (centres undefined), the IC50 was 830 nM.
In turn, `CC(C)CNCc1cccc(-c2cccc(CN(CCCN3CCN(C)CC3)C(=O)Nc3ccccc3)c2)c1` yielded an IC50 of 1150 nM.
The compound `N#Cc1cc([N+](=O)[O-])ccc1-n1nc(C(N)=O)n(Cc2cccc(F)c2)c1=S` returned a 50% inhibitory concentration (IC50) of 720 nM.
Consider `Cc1cccc2[nH]c(-c3cccc(-c4ccc(NC(=O)CN5CCOCC5)cc4)c3)nc12`, for which the IC50 amounted to 1050 nM.
For `COc1ccc2nccc(N3CCC(CCNCc4cc5c(cn4)OCCO5)CC3)c2c1` the value was 870 nM.
In turn, `CO/C(=C\C=C\c1cc2cc(Cl)c(Cl)cc2[nH]1)C(=O)NCCCN1CCN(c2cccc(Cl)c2)CC1` showed an IC50 of 730 nM.
For `COc1ccc(C(=O)c2ccc3[nH]cc(C4=CCN(C)CC4)c3c2)cc1` the value was 1050 nM; for `CCN(CC)CCCC(C)Nc1c(-c2ccc(Br)cc2)cnc2ccccc12` (centres undefined), 700 nM; for `O=C(Cc1ccccc1)NC1(c2ccccc2)CCN(CCc2c[nH]c3ccc(F)cc23)CC1`, 880 nM.
To `CC(C)(C)CCN1CCC(NC(=O)c2ccc(-c3cccc(C(F)(F)F)c3)s2)CC1` belongs 760 nM; to `Cc1cc(N)c2cc(NC(=O)c3ccc4ccccc4c3)ccc2n1`, 250 nM; to `O=C(/C=C/c1cccc(C(F)(F)F)c1)NCCCCCN1CCC(c2c[nH]c3ccccc23)CC1`, 840 nM.
The compound `O=C(Nc1ccc(Cl)c(Cl)c1)N1CCC(NCc2cccc([N+](=O)[O-])c2)CC1` returned an IC50 of 760 nM.
Consider `Fc1ccc(COc2ccc(Nc3ncnc4ccc(I)cc34)cc2Cl)cc1`, for which the IC50 came to 1180 nM.
In turn, `COc1ccc2nccc([C@@H](O)CN3CCC(NCc4nc5ccc(F)cc5[nH]4)CC3)c2c1` yielded an IC50 of 730 nM. Compared with the last compound, the IC50 is about 1.6-fold lower.
For `CC(C)C[C@H](NC(=O)c1cccc(F)c1)C(=O)N[C@H](/C=N/NC(=O)c1ccccc1)CCc1ccccc1` the value was 710 nM.
For `CCC1CN2CCc3c([nH]c4ccccc34)[C@@H]2C[C@@H]1CC1NCCc2cc(OC)c(OC)cc21` (some centres undefined) the value was 860 nM and 840 nM; for `CCCOc1ccc(C(=O)Nc2nonc2-c2ccc(OC)c(OC)c2)cc1`, 990 nM.
For `COC(=O)c1ccc(CC(C)NCC(O)c2cccc(SC(F)(F)F)c2)cc1` (centres undefined) the value was 890 nM.
Compound `C#CCCC(=O)Nc1cccc(-c2cccc(-c3nc4ccc(C(F)(F)F)cc4[nH]3)c2)c1` yielded a half-inhibitory concentration (IC50) of 810 nM.
Consider `O=C(NC1CC1)c1cnc(N2CCC(c3ccccc3)CC2)c(Cl)c1`, for which the IC50 turned out to be 850 nM.
`CCCc1cc(C(=O)N[C@@H](Cc2ccccc2)[C@H](O)CNC(C)C)c(F)c(N2CCCC2=O)c1`: the IC50 worked out at 940 nM.
For `Cc1ccc2c(NN=Cc3cccc(Cl)c3)cc(C)nc2c1` the value was 950 nM; for `Cc1cccc(CCCNC(=O)CN(c2cccc(C(F)(F)F)c2)S(=O)(=O)c2ccc(C(F)(F)F)cc2)c1`, 680 nM.
For `COc1ccc(CNCc2cccc(-c3cccc(-c4nc5c(C)cccc5[nH]4)c3)c2)cc1` the value was 130 nM; for `CC(C)c1sc(N2CCN(C)CC2)nc1C(=O)NCCc1ccc(Br)cc1`, 1130 nM.
For `CCCCCn1c(Sc2ccc(C#N)c([N+](=O)[O-])c2)nnc1-c1ccc(OC)cc1` the value was 1140 nM.
Turning to `CC(=O)Oc1c(C2CCN(CCCCNC(=O)c3ccc(NC(=O)c4ccc(Cl)cc4)cc3)CC2)ccc2c1CCCC2`, the IC50 is 760 nM.
For `O=C(NC1CCCCCC1)[C@@H]1CCCN1C(=O)c1ccc(O)c(-c2ccc(Cl)c(Cl)c2)c1` the value was 340 nM.
To `COc1cccc(Nc2nc(C)cc(NCc3ccc(-c4c(C)noc4C)cc3)n2)c1` belongs 880 nM.
For `N#Cc1ccc2c(c1)CCN(CCC1CCC(Nc3ncnc4ccccc34)CC1)C2` (centres undefined) the value was 630 nM; for `NC1=NC(c2ccccc2)(c2ccccc2)C(=O)N1C1CCCCC1`, 660 nM; for `COc1ccc2c(NN=Cc3cccc([N+](=O)[O-])c3)ccnc2c1`, 850 nM.
As for `CCCN(CCC)CC(O)COc1ccccc1C(=O)Nc1ccccc1` (centres undefined), the IC50 came to 800 nM.
For `Nc1nc(N)c2c(ccc3c2ccn3CCCF)n1` the value was 150 nM.
Consider `CCCc1cc(Cc2cnc(N)nc2N)cc(OC)c1OC`, for which the IC50 turned out to be 990 nM.
For `Cc1cccc2[nH]c(-c3cccc(-c4cccc(NC(=O)N[C@@H]5C[C@H]5c5ccccc5)c4)c3)nc12` the value was 710 nM; for `Cc1[nH]c2ccccc2c1C(=O)CSc1nn(-c2ccccc2)c(=S)s1`, 700 nM; for `CC(C)CNCc1ccc(-c2cccc(CN(C(=O)NC3CCCCC3)C3CCN(Cc4ccccc4)CC3)c2)cc1`, 800 nM.
In turn, `COc1ccc(CSC2CCCCC23NC(=S)NC3=S)cc1` (centres undefined) showed an IC50 of 850 nM. This IC50 and that of the compound before are within 1.5-fold of each other.
For `CCNc1cc(C(=O)N[C@@H](Cc2ccccc2)[C@H](O)CN[C@H]2CCc3ccccc32)cc(N2CCCC2=O)c1` the value was 290 nM.
Take `COc1ccc(CNCc2ccsc2)cc1-c1ccc(S(=O)(=O)NCCN2CCCC2)s1`: the IC50 stood at 770 nM.
To `CC(C)c1ccc(-c2noc(SCC(=O)N3CCCCC3C)n2)cc1` (centres undefined) belongs 1670 nM; to `COc1ccccc1C1CCN(Cc2csc(NC(=O)c3ccc(-c4ccc(C(F)(F)F)cc4)cc3)n2)CC1`, 950 nM.
As for `O=C(Nc1cccc(-c2cccc(-c3nc4ccc(C(F)(F)F)cc4[nH]3)c2)c1)c1ccncc1`, the IC50 amounted to 200 nM.
To `Cc1cc(-c2cccc(CNCc3ccc(F)cc3)c2)ccc1S(=O)(=O)NCCN1CCCC1` belongs 730 nM; to `N#Cc1ccc(-c2ccc(C(=O)NCCCCN3CC=C(c4ccc5c(c4OCC4CC4)CCCC5)CC3)cc2)cc1`, 620 nM.
On to `CC(Cc1ccc(C2=CCNCC2)cc1)NCC(O)c1cccc(C(F)(F)F)c1` (centres undefined), for which the IC50 came out at 1570 nM.
